The numbers were not newly measured in US7662599B2, “Nucleic acids and polypeptides involved in the production of cryptophycin” (priority 2004, dated 2010), which cites them from elsewhere.

For the data set the following is noted: comparison in words.

In the case of `COc1ccc(C[C@H]2NC(=O)/C=C/C[C@@H]([C@H](C)[C@H]3O[C@@H]3c3ccccc3)OC(=O)[C@H](CC(C)C)OC(=O)[C@H](C)CNC2=O)cc1Cl` [Cryptophycin 1], the “activity relative to other cryptophycins” value is “the most active natural compound”.
